Measurements as given in patent publication US20080317780A1, “VIRAL VACCINE AND METHOD FOR PREPARATION THEREOF” (NATIONAL RESEARCH COUNCIL OF CANADA, priority 2006, published 2008).

Test system: zinc finger protein metallothionein (MT)
Assay: Zinc-finger disruption assay (zinc release from metallothionein, PAR absorbance at 500 nm)
Format: biochemical
Procedure: Biochem. Biophys. 287:175-179, 1991; and Fliss, H.; Ménard, M., “Oxidant-induced mobilization of zinc from metallothionein” Arch. Biochem. Biophys. 293:195-199, 1991. Briefly, the assay is conducted as follows. The assay is performed in a cuvet containing the zinc finger protein metallothionein (MT), and the metallochromic indicator 4-(2-pyridylazo)resorcinol (PAR).

## OCl [hypochlorous acid]
100 μmol/L
  release of zinc in the zinc-finger assay (PAR absorbance): rapid

## NCl [monochloramine]
25 μmol/L
  zinc-finger disruption (PAR absorbance): increase in PAR absorbance

## N[C@@H](Cc1ccccc1)C(=O)O [phenylalanine]
500 μmol/L
  release of zinc in the zinc-finger assay (PAR absorbance): negligible
